Measured values published in US11484607B2, “PSMA-targeted NIR dyes and their uses” (On Target Laboratories, LLC, priority 2015, dated 2022).

Target: T1, PSMA (Homo sapiens, UniProt Q04609)
T1 construct: host or cells: 22Rv1 human prostate cancer cells
Assay: Relative binding affinity of DUPA-NIR conjugates with respect to DUPA-FITC on 22Rv1 cells, flow cytometry
Conditions: for Kd: 1 h at 37° C., 100 nM DUPA-FITC; for affinity for PSMA (in words): in vitro binding affinity data
Method: (§1) FIG. 3—Relative binding affinities of DUPA-NIR conjugates 1-9 with respect to DUPA-FITC (14). PSMA-positive 22Rv1 human prostate cancer cells were incubated for 1 h at 37° C. in the presence of 100 nM DUPA-FITC with increasing concentrations of DUPA-NIR conjugates. […] Cell bound fluorescence was assayed as using flow cytometry.
as §1, with “6—Relative” for “3—Relative”, “with aromatic amino acids linkers” for “1-9”
as §1, with “3 Relative” for “3—Relative”
in vitro studies. […] PSMA-positive 22Rv1 human prostate cancer cells were incubated for 1 h at 37° C. in the presence of 100 nM DUPA-FITC with increasing concentrations of DUPA-NIR conjugates. […] Cell bound fluorescence was assayed as using flow cytometry.
PSMA-positive 22Rv1 human prostate cancer cells were incubated for 1 h at 37° C. in the presence of 100 nM DUPA-FITC with increasing concentrations of DUPA-NIR conjugates. […] Cell bound fluorescence was assayed as using flow cytometry.
as §1, with “24: Relative” for “3—Relative”, “conjugates” for “conjugates 1-9”
PSMA-positive 22Rv1 human prostate cancer cells were incubated for 1 h at 37° C. in the presence of 100 nM DUPA-FITC with increasing concentrations of DUPA-NIR conjugates. […] Cell bound fluorescence was assayed as using flow cytometry
Cancer cells were incubated for 1 h at 37° C. in the presence of 100 nM DUPA-FITC with increasing concentrations of compound 15. […] Cell bound fluorescence was assayed as using flow cytometry.

[1] = conjugates with variable length spacers
[2] = conjugates with aromatic linkers
[3] = Example 5, variably charged NIR dye

T1 sequence (Q04609 whole entry): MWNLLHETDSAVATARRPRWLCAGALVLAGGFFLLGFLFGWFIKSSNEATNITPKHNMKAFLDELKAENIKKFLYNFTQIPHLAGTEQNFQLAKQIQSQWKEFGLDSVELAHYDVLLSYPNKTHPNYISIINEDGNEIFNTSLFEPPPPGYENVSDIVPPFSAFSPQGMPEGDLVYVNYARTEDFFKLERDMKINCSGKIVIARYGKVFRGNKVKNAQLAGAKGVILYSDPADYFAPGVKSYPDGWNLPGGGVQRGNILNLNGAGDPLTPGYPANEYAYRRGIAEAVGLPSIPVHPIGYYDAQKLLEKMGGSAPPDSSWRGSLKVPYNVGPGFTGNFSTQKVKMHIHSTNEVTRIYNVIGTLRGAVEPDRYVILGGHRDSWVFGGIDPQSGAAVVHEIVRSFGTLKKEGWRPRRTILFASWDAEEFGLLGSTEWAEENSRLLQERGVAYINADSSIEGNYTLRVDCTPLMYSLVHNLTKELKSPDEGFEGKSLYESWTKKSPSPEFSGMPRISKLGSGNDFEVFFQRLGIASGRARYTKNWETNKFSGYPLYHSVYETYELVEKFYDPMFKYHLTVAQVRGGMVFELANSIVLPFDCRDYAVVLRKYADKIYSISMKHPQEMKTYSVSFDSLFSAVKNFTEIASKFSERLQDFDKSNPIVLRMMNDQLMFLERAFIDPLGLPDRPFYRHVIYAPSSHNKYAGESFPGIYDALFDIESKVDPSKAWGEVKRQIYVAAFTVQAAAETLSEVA

Row | Kd [1] [µM] | Kd [2] [µM] | affinity for PSMA (in words) | Compound | other results
1 |  |  | low affinity | CC1(C)C(=CC=C2CCCC(C=CC3=[N+](CCCCS(=O)(=O)[O-])c4ccccc4C3(C)C)=C2Oc2ccc(CC(NC(=O)C(CCCNC(=N)N)NC(=O)C(CCCNC(=N)N)NC(=O)CCCCCCCNC(=O)CCC(NC(=O)NC(CCC(=O)O)C(=O)O)C(=O)O)C(=O)O)cc2)N(CCCCS(=O)(=O)O)c2ccccc21 (stereo not shown) [Compound 66] | 
2 |  | 0.016 |  | CC1(C)C(/C=C/C2=C(Oc3ccc(C[C@H](NC(=O)[C@H](Cc4c[nH]c5ccccc45)NC(=O)CCCCCCCNC(=O)CC[C@H](NC(=O)N[C@@H](CCC(=O)O)C(=O)O)C(=O)O)C(=O)O)cc3)C(=C/C=C3/N(CCCCS(=O)(=O)O)c4ccc(S(=O)(=O)O)cc4C3(C)C)/CCC2)=[N+](CCCCS(=O)(=O)[O-])c2ccc(S(=O)(=O)O)cc21 [Compound 33] | 
3 |  |  | very high affinity | CN1/C(=C/C=C2\CCCC(/C=C/C3=[N+](C)c4ccc(S(=O)(=O)[O-])cc4C3(C)C)=C2Oc2ccc(C[C@H](NC(=O)[C@H](Cc3ccccc3)NC(=O)CCCCCCCNC(=O)CC[C@H](NC(=O)N[C@@H](CCC(=O)O)C(=O)O)C(=O)O)C(=O)O)cc2)C(C)(C)c2cc(S(=O)(=O)O)ccc21 [Compound 56] | Kd [3]: 0.0037 µM

More lines, now with the values behind:

Row | Compound | Kd [1] [µM] | Kd [2] [µM] | affinity for PSMA (in words) | other results
4 | CC1(C)C(/C=C/C2=C(Oc3ccc(C[C@H](NC(=O)CCCCCCCNC(=O)CCCCCCCNC(=O)CC[C@H](NC(=O)N[C@@H](CCC(=O)O)C(=O)O)C(=O)O)C(=O)O)cc3)C(=C/C=C3/N(CCCCS(=O)(=O)O)c4ccc(S(=O)(=O)O)cc4C3(C)C)/CCC2)=[N+](CCCCS(=O)(=O)[O-])c2ccc(S(=O)(=O)O)cc21 [Compound 9] | 0.0172 |  |  | 
5 | CC1(C)C(/C=C/C2=C(SC[C@H](NC(=O)[C@H](Cc3ccccc3)NC(=O)[C@H](Cc3ccccc3)NC(=O)CCCCCCCNC(=O)CC[C@H](NC(=O)N[C@@H](CCC(=O)O)C(=O)O)C(=O)O)C(=O)O)C(=C/C=C3/N(CCCCS(=O)(=O)O)c4ccc(S(=O)(=O)O)cc4C3(C)C)/CCC2)=[N+](CCCCS(=O)(=O)[O-])c2ccc(S(=O)(=O)O)cc21 [Compound 27] |  | 0.0222 |  | 
6 | CC1(C)C(/C=C/C2=C(Oc3ccc(C[C@H](NC(=O)[C@H](Cc4ccccc4)NC(=O)CCCCCCCNC(=O)CC[C@H](NC(=O)N[C@@H](CCC(=O)O)C(=O)O)C(=O)O)C(=O)O)cc3)C(=C/C=C3/N(CCC[N+](C)(C)C)c4ccccc4C3(C)C)/CCC2)=[N+](CCC[N+](C)(C)C)c2ccccc21 [Compound 59] |  |  |  | Kd [3]: 0.0609 µM
7 | CC1(C)C(/C=C/C2=C(Oc3ccc(C[C@H](NC(=O)C[C@H](NC(=O)CC[C@H](NC(=O)N[C@@H](CCC(=O)O)C(=O)O)C(=O)O)C(=O)O)C(=O)O)cc3)C(=C/C=C3/N(CCCCS(=O)(=O)O)c4ccc(S(=O)(=O)O)cc4C3(C)C)/CCC2)=[N+](CCCCS(=O)(=O)[O-])c2ccc(S(=O)(=O)O)cc21 [Compound 3] | 0.00971 |  | very high affinity | 
8 | CC1(C)C(/C=C/C2=C(Oc3ccc(CCNC(=O)CC[C@H](NC(=O)N[C@@H](CCC(=O)O)C(=O)O)C(=O)O)cc3)C(=C/C=C3/N(CCCCS(=O)(=O)O)c4ccc(S(=O)(=O)O)cc4C3(C)C)/CCC2)=[N+](CCCCS(=O)(=O)[O-])c2ccc(S(=O)(=O)O)cc21 [Compound 2] | 0.113 |  | low affinity | 
9 | CC1(C)C(/C=C/C2=C(Oc3ccc(C[C@H](NC(=O)[C@H](Cc4c[nH]cn4)NC(=O)CCCCCCCNC(=O)CC[C@H](NC(=O)N[C@@H](CCC(=O)O)C(=O)O)C(=O)O)C(=O)O)cc3)C(=C/C=C3/N(CCCCS(=O)(=O)O)c4ccc(S(=O)(=O)O)cc4C3(C)C)/CCC2)=[N+](CCCCS(=O)(=O)[O-])c2ccc(S(=O)(=O)O)cc21 [Compound 32] |  | 0.032 |  | 
10 | CC1(C)C(/C=C/C2=C(Oc3ccc(C[C@H](NC(=O)[C@H](Cc4ccccc4)NC(=O)[C@H](Cc4ccccc4)NC(=O)CCCCCCCNC(=O)C[C@H](NC(=O)CC[C@H](NC(=O)N[C@@H](CCC(=O)O)C(=O)O)C(=O)O)C(=O)O)C(=O)O)cc3)C(=C/C=C3/N(CCCCS(=O)(=O)O)c4ccc(S(=O)(=O)O)cc4C3(C)C)/CCC2)=[N+](CCCCS(=O)(=O)[O-])c2ccc(S(=O)(=O)O)cc21 [Compound 8] | 0.0232 |  |  | 
